Earlier results, collected in patent publication US10603382B2, “Ophthalmic composition” (Johnson & Johnson Consumer Inc., priority 2014, dated 2020).

Details: Merck Index, Twelfth Edition
In the case of `O=C(O)/C=C\C(=O)O` [Maleic acid], the “Solubility (g/100 ml water at 25° C.)” value is given as 78 g/100 ml. For `O=C(O)/C=C/C(=O)O` [Fumaric acid], the “Solubility (g/100 ml water at 25° C.)” value is given as 0.63 g/100 ml. In the case of `O=C(O)CCCC(=O)O` [Glutaric acid], the “Solubility (g/100 ml water at 25° C.)” value is given as 63.9 g/100 ml.
